According to US6951647B2, “T cell binding ligand peptides and method of inducing a cellular immune response” (Cel-Sci Corporation, priority 2001, dated 2005):
“And” between values parts separate entries of the source, which are not always exact repeats. Equal values may be shown once. Where no end group is shown, it is not given here.

Tests used:
[1] = saline (0.15 M NaCl, pH 7.4) or WFI, 0.5-2.0 mg/ml; 2-8, 18-25 or 40 °C; pH 7.4 to 4.5; HPLC
Protocol: The long range stability of the peptide constructs formed using Peptide G, was carried out with the construct dissolved in saline (0.15 M NaCl, pH 7.4) or in water for injection (WFI) at a concentration of 0.5-2.0 mg/ml and stored frozen soon after preparation.

Peptide G [2] = assay: Specificity analysis for the TCBL carrier, ELISA plates coated with Peptide G; format: in vivo, Mice; details: for A 490 1:200 dilution on plates coated with Peptide G: Average
Protocol: (§1) Mice in groups (5-10 animals per group as designated) are immunized with the LEAPS constructs (25 μg/dose) of SEQ ID NO's:37, 38 and 39, in 0.2 mL emulsified 1:1 with adjuvant (Seppic's ISA-51 or Corixa's microfluidized MPL S/E) on days 0 and 14. Mice are evaluated by Delayed Type of Hypersensitivity (DTH) by inoculation on day 26 with 20 μl of a solution of saline or mH (SEQ ID NO:6) (25 μg in saline) in the left or right ear respectively. The DTH response is determined by measurement of the ear thickness 48 hours later and expressed as increase in ear thickness (mm) of experimental ear compared to that of the control ear. Individual animal sera are collected for measurement of antibody on day 28, 42, 63 and 77. Sera from individual animals and group pools are evaluated for specific anti-mH antibody, for total antibody, IgG1, IgG2a and IgG3 antibody isotype and cross clade titer at selected time points as indicated.
A specificity analysis for the TCBL or KLH carrier for pools of day 42 test bleedings from the G-mH, G′-mH and mH/KLH, using either MPL S/E or ISA51 as adjuvant, was carried out (all sera assayed at a dilution of 1:200) and the results are shown in Table 5. […] This observation is especially significant for vaccines used on a repetitive basis, such as, either a vaccine that requires more frequent intervals between boosters for maintenance of cellular reactivity or as a therapeutic vaccine.

D Clade [3] = assay: ELISA cross clade recognition by sera of immunized mice, D Clade; format: in vivo; details: day 42 test bleeding, individual mouse
Peptide G [4] = assay: Specificity analysis for the TCBL carrier, ELISA plates coated with Peptide G; format: in vivo, Mice; details: individual animal
modified HGP-30 = assay: ELISA antibody screening of sera of immunized mice on modified HGP-30; format: in vivo; details: for ELISA test antigen Modified HGP-30: day 42 test bleeding
Protocol: as §1, with “indicated. […]” for “indicated.”

E Clade [5] = assay: ELISA cross clade recognition by sera of immunized mice, E Clade; format: in vivo; details: day 42 test bleeding, individual mouse
D Clade [6] = assay: ELISA cross clade recognition by sera of immunized mice, D Clade; format: in vivo; details: for ELISA test antigen D Clade: day 42 test bleeding, Group Average
Protocol: as §1
(§2) The mouse sera for the ELISA was used at a dilution of 1:200. Again, clearly, the construct provides higher signals indicative of higher levels of the antibodies that recognized other clades besides the parental one (Clade B) of mH.
(§3) A cross clade analysis for pools of day 42 test bleedings from the same groups as used in Table 3, were obtained and the results are shown in Table 4.

B Clade = assay: ELISA cross clade recognition by sera of immunized mice, B Clade; format: in vivo; details: for ELISA test antigen B Clade: day 42 test bleeding
Protocol: as §1, §2, §3

[7] = test system: modified HGP-30 (mH, SEQ ID NO:6); assay: Isotype analysis (ELISA) of anti-mH antibody in sera of immunized mice; format: in vivo; design: IgG1 / IgG2a / IgG2b / IgG3: unit not given here; details: for IgG1 / IgG2a / IgG2b / IgG3: ELISA signal, day 42 test bleeding; for Ig1, serial dilution 1:200 / Ig1, serial dilution 1:800 / Ig1, serial dilution 1:3200 / Ig1, serial dilution 1:12800 / Ig1, serial dilution 1:51200 / Ig1, serial dilution 1:204800 / Ig2a, serial dilution 1:200 / Ig2a, serial dilution 1:800 / Ig2a, serial dilution 1:3200 / Ig2a, serial dilution 1:12800 / Ig2a, serial dilution 1:51200 / Ig2a, serial dilution 1:204800 / Ig2b, serial dilution 1:200 / Ig2b, serial dilution 1:800 / Ig2b, serial dilution 1:3200 / Ig2b, serial dilution 1:12800 / Ig2b, serial dilution 1:51200 / Ig2b, serial dilution 1:204800 / Ig3, serial dilution 1:200 / Ig3, serial dilution 1:800 / Ig3, serial dilution 1:3200 / Ig3, serial dilution 1:12800 / Ig3, serial dilution 1:51200 / Ig3, serial dilution 1:204800: day 28 pool
Protocol: as §1
The results of an isotype analysis of day 42 test bleedings with G′-mH (SEQ ID NO:37), G-mH (SEQ ID NO:38), J-mH (SEQ ID NO:39), F-mH (SEQ ID NO:40) and F-HGP-30 (SEQ ID NO:41), are shown in Table 1.
An isotype analysis for pools of day 28 test bleedings G-mH, G′-mH and m-HGP-30/KLH using either MPL S/E or ISA51 as adjuvant, are shown in Table 3.

C Clade = assay: ELISA cross clade recognition by sera of immunized mice, C Clade; format: in vivo; details: for ELISA test antigen C Clade: day 42 test bleeding
Protocol: as §1, §2, §3

E Clade [8] = assay: ELISA cross clade recognition by sera of immunized mice, E Clade; format: in vivo; details: for ELISA test antigen E Clade: day 42 test bleeding, Group Average
Protocol: as §1, §2, §3

[9] = day 63 test bleeding, sera 1:200, individual mouse
[10] = group without '(with MPL)' (ISA51)

## DGQEEKAGVVSTGLI [Peptide G′]
[1]
  Long range stability (deamination) of peptide constructs: overcomes the long range stabilization problem of the peptide conjugates

## NGQ EEK AGV VST GLI GGG ATL YSV HQR IDV KDT KEA LEK IEE EQN KS (DGQEEKAGVVSTGLIGGGEAQNTTYL) [SEQ ID NO: 58, Peptide G linked by GGG spacer to modified HGP-30 (mH)]
Peptide G [2]; day 42, first set of groups
  A 490 1:200 dilution on plates coated with Peptide G: 0.099 A 490
Peptide G [2]; day 42, second set of groups
  A 490 1:200 dilution on plates coated with Peptide G: 0.062 A 490
Peptide G [2]; day 42 sera at 1:200, Table 5, in words
  Reactivity toward the delivery vehicle TCBL: minimal reactivity
D Clade [3]; group (A)
  ELISA test antigen D Clade: 0.000
D Clade [3]; group (B)
  ELISA test antigen D Clade: 0.005 and 0.006 and 0.000 (4×)
Peptide G [4]; day 42, first set of groups (animals 4637-4648, 4674-4678)
  A 490 1:200 dilution on plates coated with Peptide G: 0.195 A 490 and 0.122 A 490 and 0.092 A 490 and 0.088 A 490 and 0.047 A 490
Peptide G [4]; day 42, second set of groups (animals 4662-4673, 4679-4683)
  A 490 1:200 dilution on plates coated with Peptide G: 0.024 A 490 and 0.044 A 490 and 0.062 A 490 and 0.033 A 490 and 0.060 A 490 and 0.151 A 490
Modified HGP-30; day 42, first set of groups (animals 4637-4648, 4674-4678), individual animal
  A 490 1:200 dilution on plates coated with modified HGP-30: 0.257 A 490 and 0.571 A 490 and 0.065 A 490 and 0.392 A 490 and 1.008 A 490 and 0.021 A 490
Modified HGP-30; day 42, first set of groups, Average
  A 490 1:200 dilution on plates coated with modified HGP-30: 0.386 A 490
Modified HGP-30; day 42, second set of groups (animals 4662-4673, 4679-4683), individual animal
  A 490 1:200 dilution on plates coated with modified HGP-30: 0.051 A 490 and 0.052 A 490 and 1.102 A 490 and 0.005 A 490 and 0.000 A 490 (2×)
Modified HGP-30; day 42, second set of groups, Average
  A 490 1:200 dilution on plates coated with modified HGP-30: 0.202 A 490
Modified HGP-30; group (A), Group Average
  ELISA test antigen Modified HGP-30: 0.576
Modified HGP-30; group (A), individual mouse
  ELISA test antigen Modified HGP-30: 0.470 and 1.103 and 0.046 and 0.390 and 1.297 and 0.153
Modified HGP-30; group (B), Group Average
  ELISA test antigen Modified HGP-30: 0.394
Modified HGP-30; group (B), individual mouse
  ELISA test antigen Modified HGP-30: 0.187 and 0.188 and 1.848 and 0.145 and 0.000 (2×)
Modified HGP-30; [9]
  ELISA signal on modified HGP-30: 1.831 and 2.453 and 2.530 and 1.740 and 0.398 and 1.240 and 2.665 and 1.014 and 0.444 and 0.304
E Clade [5]; group (A)
  ELISA test antigen E Clade: 0.000
E Clade [5]; group (B)
  ELISA test antigen E Clade: 0.000
D Clade [6]; group (A)
  ELISA test antigen D Clade: 0.000
D Clade [6]; group (B)
  ELISA test antigen D Clade: 0.002
D Clade [6]; [9]
  ELISA signal on D Clade: 0.025 and 0.646 and 0.000 (6×) and 0.001 and 0.016
B Clade; group (A), Group Average
  ELISA test antigen B Clade: 0.005
B Clade; group (A), individual mouse
  ELISA test antigen B Clade: 0.000 (5×) and 0.028
B Clade; group (B), Group Average
  ELISA test antigen B Clade: 0.022
B Clade; group (B), individual mouse
  ELISA test antigen B Clade: 0.000 (3×) and 0.006 and 0.079 and 0.046
B Clade; [9]
  ELISA signal on B Clade: 0.000 (6×) and 0.316 and 0.148 and 0.006 and 0.230
[7]; group Average
  IgG1: 1.400
  IgG2a: 0.367
  IgG2b: 0.478
  IgG3: 0.531
[7]; individual mouse
  IgG1: 1.810 and 2.606 and 1.738 and 0.123 and 1.649 and 2.651 and 0.562 and 0.431 and 0.042 and 2.391
  IgG2a: 0.152 and 1.386 and 0.074 and 0.005 and 0.129 and 1.619 and 0.047 and 0.031 and 0.025 and 0.200
  IgG2b: 0.223 and 2.038 and 0.464 and 0.017 and 0.025 and 1.613 and 0.059 and 0.038 and 0.183 and 0.123
  IgG3: 0.388 and 1.817 and 0.033 and −0.013 and 0.152 and 2.378 and 0.000 and 0.106 and 0.089 and 0.358
[7]; [10]
  Ig1, serial dilution 1:200: 0.507
  Ig1, serial dilution 1:800: 0.173
  Ig1, serial dilution 1:3200: 0.025
  Ig1, serial dilution 1:12800: 0.009
  Ig1, serial dilution 1:51200: 0.014
  Ig1, serial dilution 1:204800: 0.000
  Ig2a, serial dilution 1:200: 0.000
  Ig2a, serial dilution 1:800: 0.015
  Ig2a, serial dilution 1:3200: 0.000
  Ig2a, serial dilution 1:12800: 0.003
  Ig2a, serial dilution 1:51200: 0.006
  Ig2a, serial dilution 1:204800: 0.000
  Ig2b, serial dilution 1:200: 0.017
  Ig2b, serial dilution 1:800: 0.000
  Ig2b, serial dilution 1:3200: 0.004
  Ig2b, serial dilution 1:12800: 0.001
  Ig2b, serial dilution 1:51200: 0.000
  Ig2b, serial dilution 1:204800: 0.000
  Ig3, serial dilution 1:200: 0.009
  Ig3, serial dilution 1:800: 0.002
  Ig3, serial dilution 1:3200: 0.000
  Ig3, serial dilution 1:12800: 0.000
  Ig3, serial dilution 1:51200: 0.000
  Ig3, serial dilution 1:204800: 0.000
[7]; with MPL
  Ig1, serial dilution 1:200: 0.103
  Ig1, serial dilution 1:800: 0.022
  Ig1, serial dilution 1:3200: 0.003
  Ig1, serial dilution 1:12800: 0.000
  Ig1, serial dilution 1:51200: 0.000
  Ig1, serial dilution 1:204800: 0.000
  Ig2a, serial dilution 1:200: 0.248
  Ig2a, serial dilution 1:800: 0.048
  Ig2a, serial dilution 1:3200: 0.000
  Ig2a, serial dilution 1:12800: 0.000
  Ig2a, serial dilution 1:51200: 0.002
  Ig2a, serial dilution 1:204800: 0.000
  Ig2b, serial dilution 1:200: 0.147
  Ig2b, serial dilution 1:800: 0.026
  Ig2b, serial dilution 1:3200: 0.022
  Ig2b, serial dilution 1:12800: 0.006
  Ig2b, serial dilution 1:51200: 0.007
  Ig2b, serial dilution 1:204800: 0.018
  Ig3, serial dilution 1:200: 0.265
  Ig3, serial dilution 1:800: 0.044
  Ig3, serial dilution 1:3200: 0.006
  Ig3, serial dilution 1:12800: 0.001
  Ig3, serial dilution 1:51200: 0.000
  Ig3, serial dilution 1:204800: 0.000
C Clade; group (A), Group Average
  ELISA test antigen C Clade: 0.018
C Clade; group (A), individual mouse
  ELISA test antigen C Clade: 0.000 (4×) and 0.004 and 0.104
C Clade; group (B), Group Average
  ELISA test antigen C Clade: 0.009
C Clade; group (B), individual mouse
  ELISA test antigen C Clade: 0.003 (2×) and 0.000 (3×) and 0.050
C Clade; [9]
  ELISA signal on C Clade: 0.125 and 0.359 and 0.238 and 0.047 and 0.005 and 0.076 and 0.643 and 0.000 (3×)
E Clade [8]; group (A)
  ELISA test antigen E Clade: 0.000
E Clade [8]; group (B)
  ELISA test antigen E Clade: 0.000
E Clade [8]; [9]
  ELISA signal on E Clade: 0.000 (8×) and 0.016 and 0.504
